According to patent US20080090847A1, “HETEROCYCLIC COMPOUNDS AND USES THEREOF AS D-ALANYL-D-ALANINE LIGASE INHIBITORS” (PLIVA D.D., priority 2001, published 2008):
Where two headings read alike, the source gives them in different places.

Columns and labels:
Assay type in all cases: biochemical
[1] = target: T1, 4 ligases in the panel (D-Ala-D-Ala ligase); experiment: Ligase panel statements (ligases not individually named); conditions: 3 of the 4 ligases; read-out: Ki's against 3 of the 4 ligases in the panel
T1 construct: rows headed: Ki's against 3 of the 4 ligases in the panel; other: text b65; 3 of the 4 ligases
From the text: (§1) Inhibition of D-Ala-D-Ala ligase can be assayed for using the pyruvate kinase/lactate dehydrogenase (PK/LDH) assay described in Example 2, and as described in the literature (e.g., in Sarthy et al., Anal. Biochem., 254:288-290, 1997). In the bacterial cell wall synthesis process, the ligase catalyzes the conversion of adenosine triphosphate (ATP) to adenosine diphosphate (ADP) concurrent with the ligation of two D-alanine residues to form D-alanyl-D-alanine. PK then regenerates ATP from the ADP thus created simultaneously with the conversion of phosphopyruvate to pyruvate. LDH catalyzes the reduction of pyruvate to lactate by converting NADH to NAD^+. By monitoring the production rate of NAD^+ (e.g., using UV/Vis spectroscopy), D-Ala-D-Ala ligase activity can be ascertained.
(§2) The protein sequence for the enzyme D-ala-D-ala ligase has been determined in a variety of different bacterial species using standard techniques in biochemistry (see Table 5). The protein sequence from any species can be overexpressed in an appropriate host organism such as E. coli using standard molecular biology techniques. The ligase enzyme can be harvested, purified, and used in the above described assay for the determination of inhibitory activity.
(§3) The synthetic analogs of Example 1 were dissolved in dimethylsulfoxide (DMSO) at a concentration of 100 mM on the day of screening, using a vortex mixer and sonication if necessary for dissolution. The solutions were kept at room temperature until screening was completed.
(§4) A 10 mM NADH (Sigma) stock solution was prepared freshly on the day of screening by dissolving 32 μmol NADH in 3.2 ml double-distilled water. The NADH solution was kept on ice. […]
(§5) Plots of reaction rates vs. inhibitor concentration were generated using Kaleidograph®, and Ki values were determined after the data was fitted to the proper equation.

[2] = target: E. coli ligase (D-Ala-D-Ala ligase) (Escherichia coli, UniProt P07862); experiment: D-Ala-D-Ala ligase Ki determination (PK/LDH coupled assay), E. coli ligase; conditions: E. coli ligase Ki/ATP (uM) avg, Ki/ATP, avg
From the text: as §1, §2, §3
(§6) A 10 mM NADH (Sigma) stock solution was prepared freshly on the day of screening by dissolving 32 μmol NADH in 3.2 ml double-distilled water. The NADH solution was kept on ice. Stock solutions containing 50 mM phosphoenolpyruvate (PEP; Sigma), 500 μM HERMES, 30 mM adenosine triphosphate (ATP; Sigma), 200 mM D-alanine (Sigma), and 4× core buffer (i.e., 400 mM Hepes, 40 mM magnesium chloride, and 40 mM potassium chloride), were also stored on ice. A stock solution of pyruvate kinase/lactate dehydrogenase (PK/LDH) was also obtained from Sigma.
(§7) Table of Final concentrations are dependent on the type of screening:
(§8) For each set of test compounds, two 96-well plates were used: an inhibitor plate and an enzyme plate. The test compounds correspond to rows A-G of the plates. Adenosine (Sigma) dissolved in DMSO, used as a control, corresponds to row H of each plate.
(§9) The enzyme solution was allowed to equilibrate to 25° C.
(§10) Dilutions were prepared in the inhibitor plate as follows: 50 μl DMSO was added to each well of columns 1-11, rows A-G, of the inhibitor plate. 50 μl DMSO were added to each well of columns 1-11, row H. 100 μl of the 100 mM test solutions were added to column 12, rows A-G (i.e., the first compound in row A, the second compound in row B, and so on). 100 μl of a 100 mM Adenosine solution was added to column 12, row H.
(§11) 50 μl of the test solution was transferred from column 12 in each row to column 11 of the a same row, mixing the solution with the DMSO. 50 μl of solution was then transferred from column 11 in each row to column 10 in the same row, 50 μl from column 10 was transferred to column 9, and so on, down to column 2. No solution was transferred to column 1. Multichannel pipettors were used in making the serial dilution.
(§12) 120 μl of the enzyme solution was added to each well of the enzyme plate.
(§13) The substrate solutions were brought to 25° C.
(§14) The analogs and enzymes were then incubated at 25° C. Since the reactions were initiated in columns, the analog addition is also in columns. At t=0 minutes, 5 μl analog was transferred from each well of columns 1-4 of the inhibitor plate to the corresponding well of the enzyme plate. At t=4 minutes, 5 μl analog was transferred from each well of columns 5-8 of the inhibitor plate to the corresponding well of the enzyme plate. At t=8 minutes, 5 μl analog was transferred from each well of columns 9-12 of the inhibitor plate to the corresponding well of the enzyme plate. The inhibitor plate was then frozen. […]

[3] = target: T2, Strep ligase (D-Ala-D-Ala ligase) (Streptococcus pneumoniae serotype 4, UniProt P0CB57); experiment: D-Ala-D-Ala ligase Ki determination (PK/LDH coupled assay), Strep ligase; conditions: Ki/ATP, avg, read-out: Strep ligase Ki/ATP (uM) avg
T2 sequence (P0CB57 1-347): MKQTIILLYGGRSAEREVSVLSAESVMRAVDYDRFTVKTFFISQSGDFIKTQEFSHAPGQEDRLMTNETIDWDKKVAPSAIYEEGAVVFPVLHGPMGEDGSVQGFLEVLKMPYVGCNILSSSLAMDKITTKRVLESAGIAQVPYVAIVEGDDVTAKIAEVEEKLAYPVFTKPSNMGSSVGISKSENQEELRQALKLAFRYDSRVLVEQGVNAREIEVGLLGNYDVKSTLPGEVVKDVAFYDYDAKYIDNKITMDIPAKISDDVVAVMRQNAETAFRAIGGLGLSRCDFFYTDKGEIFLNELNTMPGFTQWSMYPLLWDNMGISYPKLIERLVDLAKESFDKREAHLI
From the text: as §1, §2, §3, §6, §7, §8, §9, §10, §11, §12, §13, §14

[4] = target: Staph ligase (D-Ala-D-Ala ligase) (Staphylococcus aureus, UniProt Q5HEB7); experiment: D-Ala-D-Ala ligase Ki determination (PK/LDH coupled assay), Staph ligase; conditions: Ki/ATP, avg, read-out: Staph ligase Ki/ATP (uM) avg
From the text: as §1, §2, §3, §6, §7, §8, §9, §10, §11, §12, §13, §14

[5] = target: H. Influenzae ligase (D-Ala-D-Ala ligase) (Haemophilus influenzae, UniProt P44405); experiment: D-Ala-D-Ala ligase Ki determination (PK/LDH coupled assay), H. influenzae ligase; conditions: Ki/ATP, avg, read-out: H. Influenzae ligase Ki/ATP (uM) avg
From the text: as §1, §2, §3, §6, §7, §8, §9, §10, §11, §12, §13, §14

[6] = system: T3, 4 ligases in the panel (D-Ala-D-Ala ligase); experiment: Ligase panel statements (ligases not individually named)
T3 construct: rows headed: ligase panel activity (in words); other: text b65
From the text: as §1, §2, §3, §4, §5

Staph ligase (D-Ala-D-Ala ligase), sequence (Q5HEB7 whole entry): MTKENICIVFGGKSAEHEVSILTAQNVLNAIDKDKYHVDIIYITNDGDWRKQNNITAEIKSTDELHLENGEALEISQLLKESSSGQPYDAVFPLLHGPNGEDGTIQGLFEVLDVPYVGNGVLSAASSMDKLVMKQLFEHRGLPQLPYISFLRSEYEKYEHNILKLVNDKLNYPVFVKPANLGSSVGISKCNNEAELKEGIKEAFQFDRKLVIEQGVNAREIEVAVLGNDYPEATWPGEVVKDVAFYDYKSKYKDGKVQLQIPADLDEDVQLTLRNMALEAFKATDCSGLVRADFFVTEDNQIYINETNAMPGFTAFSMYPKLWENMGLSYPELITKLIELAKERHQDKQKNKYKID
H. Influenzae ligase (D-Ala-D-Ala ligase), sequence (P44405 whole entry): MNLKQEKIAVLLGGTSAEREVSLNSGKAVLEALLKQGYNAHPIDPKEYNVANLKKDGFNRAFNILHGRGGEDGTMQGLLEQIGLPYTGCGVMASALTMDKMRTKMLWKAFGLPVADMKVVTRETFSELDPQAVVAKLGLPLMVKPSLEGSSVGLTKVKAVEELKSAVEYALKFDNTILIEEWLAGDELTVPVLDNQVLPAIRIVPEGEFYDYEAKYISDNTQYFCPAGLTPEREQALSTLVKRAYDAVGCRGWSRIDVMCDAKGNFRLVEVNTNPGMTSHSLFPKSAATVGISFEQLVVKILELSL

Structure (SMILES)	Ki [1] [nM]	Ki ([2]; Table 3) [µM]	Ki ([3]; Table 3) [µM]	Ki ([4]; Table 3) [µM]	Ki ([5]; Table 3) [µM]	ligase panel activity (in words) [6]	Ki ([2]; Table 4) [µM]	Ki ([3]; Table 4) [µM]	Ki ([4]; Table 4) [µM]	Ki ([5]; Table 4) [µM]
CCOc1ccc2ccccc2c1CN(CCC(=O)NCc1cccc(CN)c1)c1ncc2c(N)nc(N)nc2n1	< 1000	5.3	0.9	0.9	0.4	–	–	–	–	–
CCOc1ccc2ccccc2c1CN(CCC(=O)NCc1ccc(N)cc1)c1ncc2c(N)nc(N)nc2n1	–	8.7	1.6	1.2	1.6	potent against three ligase species	–	–	–	–
CCOc1ccc2ccccc2c1CN(CCC(=O)NCC(=N)N)c1ncc2c(N)nc(N)nc2n1	–	1	1.4	6.3	0.6	activity similar to that of the first compound	–	–	–	–
CCOc1ccc2ccccc2c1CN(CCC(=O)N1CCOCC1)c1ncc2c(N)nc(N)nc2n1	–	1.9	4.1	3.8	1.3	–	–	–	–	–
CCOc1ccc2ccccc2c1CN(CCC(=O)O)c1ncc2c(N)nc(N)nc2n1	–	–	–	–	–	–	5.3	2.1	6.7	3.7
